Results on seven molecules are retold here after patent publication US12612343B2, “PSMA binder and use thereof” (priority 2020, dated 2026).

“And” between values parts separate entries of the source, which are not always exact repeats. Equal entries are not always repeated. “Also recorded” adds a separate entry of the source. Where two headings read alike, the source gives them in different places. Some results are limits rather than exact numbers.

Data set [1] deals with Human prostate cancer LNCaP cells (PSMA positive). Briefly: LNCaP cell uptake experiment. The note with it: for specific binding to PSMA-positive LNCaP cells: conclusion from the uptake and blocking experiment. The format is cell-based. The procedure: Human prostate cancer LNCaP cells (PSMA positive) were cultured in a RPMI 1640 medium containing 10% fetal bovine serum and 1% penicillin-streptomycin double antibody under 37° C. with 5% CO2 and saturated humidity in the incubator. When the cells reach log phase, they were digested with 0.25% trypsin, then the cells were collected and washed twice with PBS, after that a cell suspension was obtained for further culture. A fixed number of cell lines (1.0×10^6 cells/1 ml) was placed in each well of a 24-well cell culture dish, and the experiment was performed after the logarithmic growth phase.
The cells were divided into an experimental group and a blocking group. […] 6 groups of experiments were carried out in parallel. After 1 h, the culture medium was aspirated, placed in a γ-counting tube, and then washed three times with PBS. The washing solution and the culture medium were combined for storage. Then the cells were trypsinized, collected in another counting tube, and the percentage of cell uptake was calculated by a γ-counting tube.

Data set [2] has as its system biochemical recurrent prostate cancer. Put plainly: Comparison of SPECT/CT and PET/CT in 10 patients with biochemical recurrent prostate cancer. The note with it: for patients found to have local recurrence in the prostatic fossa / positive rate of imaging: 5 patients per group; for positive rate of imaging: preliminary statistics; for Number of tumors / With or without local recurrence: per patient (No. 1-10), biochemical recurrence after radical prostatectomy. The format is in vivo, human. The protocol:
10 patients with biochemical recurrent prostate cancer were randomly divided into two groups. The basic clinical information of the two groups was similar: they both have previously received radical prostatectomy, and the current PSA of them were 1-3 ng/ml, and the GS score of them were 8-9. One group underwent ^68Ga-PSMA11 PET/CT, and the other group underwent ^99mTc-PSMA-XL SPECT/CT.

In another data set the target is PSMA protein (Homo sapiens, UniProt Q04609). Briefly: Affinity assay by Surface Plasmon Resonance (SPR). The note with it: binding to PSMA protein. The procedure: The binding capacity of HYNIC-PSMA-XL-2 and HYNIC-PSMA-XL-3 to PSMA protein was determined by Surface Plasmon Resonance (SPR).
Data set [3] concerns prostate cancer tumors (PSMA expression). Briefly: SPECT/CT imaging of 10 patients with prostate cancer, with immunohistochemistry of surgical specimens. The format is in vivo, human. The protocol:
The patients were injected with about 740MBq of ^99mTc-HYNIC-PSMA-XL-3, and 2 hours later, they were examined by a Discovery 670 (GE, USA) scanner. Taking the right obturator internus muscle as the background, the target-to-background ratio (TBR) was calculated, and the results were shown in FIG. 15. […] Four of the five patients with primary prostate cancer underwent radical prostatectomy, and one of the three patients with biochemical recurrence prostate cancer underwent salvage lymph node dissection. Without knowing the results of ^99mTc-HYNIC-PSMA-XL-3 SPECT/CT, pathology specialists performed pathological analysis of samples. Representative sections were stained by immunohistochemistry method, deparaffinized in xylene and rehydrated in graded ethanol series. Antigen retrieval was performed with the aid of autoclave and retrieval buffer (Target Retrieval Solution, Dako). Mouse monoclonal antibody against PSMA (clone 3E6, Dako) was diluted at a 1:100 dilution and incubated overnight at 4° C., followed by immunodetection using the Histostain-Plus Detection Kit (Invitrogen). Stained sections were scanned using Nanozoomer 2.0-[…] (Hamamatsu Photonics) to generate digital overall images.

Data set [4] concerns prostate tumors versus bladder. Briefly: Comparative imaging study with existing PSMA imaging agents in 15 prostate cancer patients. To be noted: 3 groups, SPECT/CT or PET/CT (FIG. 19). The class given is in vivo, human. The source says:
15 patients with prostate cancer were randomly divided into 3 groups. One group underwent ^99mTc-HYNIC-ALUG SPECT/CT, one group underwent ^68Ga-PSMA11 PET/CT, and one group underwent ^99mTc-HYNIC-PSMA-XL3 SPECT/CT.

[5] abbreviates: upper bound calculated from ka, as kd was beyond the detection limit, read-out: KD value (SPR method).

Sequence of PSMA protein (Q04609 whole entry): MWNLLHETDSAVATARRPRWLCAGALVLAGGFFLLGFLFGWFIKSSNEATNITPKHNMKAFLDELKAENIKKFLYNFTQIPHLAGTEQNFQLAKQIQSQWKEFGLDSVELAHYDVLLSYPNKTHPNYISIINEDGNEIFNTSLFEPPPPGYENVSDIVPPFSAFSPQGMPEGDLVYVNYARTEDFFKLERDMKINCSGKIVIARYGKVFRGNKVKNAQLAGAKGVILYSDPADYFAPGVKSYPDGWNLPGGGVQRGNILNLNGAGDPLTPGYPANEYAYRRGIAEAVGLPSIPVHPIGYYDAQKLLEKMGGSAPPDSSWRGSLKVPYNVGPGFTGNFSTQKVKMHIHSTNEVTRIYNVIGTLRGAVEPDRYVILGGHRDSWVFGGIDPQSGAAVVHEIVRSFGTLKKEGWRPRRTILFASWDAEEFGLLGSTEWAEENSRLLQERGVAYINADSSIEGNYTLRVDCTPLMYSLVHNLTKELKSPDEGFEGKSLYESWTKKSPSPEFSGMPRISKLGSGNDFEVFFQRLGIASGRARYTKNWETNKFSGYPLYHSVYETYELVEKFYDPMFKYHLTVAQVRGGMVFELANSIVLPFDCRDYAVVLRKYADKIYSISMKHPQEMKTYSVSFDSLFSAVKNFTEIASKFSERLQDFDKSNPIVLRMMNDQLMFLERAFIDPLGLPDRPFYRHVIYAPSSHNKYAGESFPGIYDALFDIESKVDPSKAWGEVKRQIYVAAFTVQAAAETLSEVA

In the case of `O=C(O)CCC(NC(=O)NC(CCCCNC(=O)C(Cc1ccc2ccccc2c1)NC(=O)c1ccc(CNC(=O)C(CCC(=O)O)NC(=O)c2ccc(N[N]=[99Tc]3([Cl])[O]C(=O)CNCCNCC(=O)[O]3)nc2)cc1)C(=O)O)C(=O)O` (stereo not drawn) [^99mTc-HYNIC/EDDA-PSMA-XL-3], the “percentage of cell uptake, Experimental group” value in data set [1] (LNCaP cells, 0.5 μCi per well, 1 h) stood at 14.01 ± 1.11%. Further, the “percentage of cell uptake, Blocking group” value in data set [1] (LNCaP cells, 1 h, excess 2-PMPA (1000-fold molar equivalent) added half an hour in advance) is recorded as 2.66 ± 0.51%. In data set [2], the “patients found to have local recurrence in the prostatic fossa” value was determined as 1 and the “positive rate of imaging” value was 80%. In addition, in data set [2] (listed as 99mTc-PSMA-XL), the Number of tumors was 3 and 1 and 2 and 0 and 4; the “With or without local recurrence” value was “yes and no (4×)”.
The term Kd denotes the concentration at which binding is half-saturated. As to `O=C(O)CCc1ccc(O)c(CN(CCN(CC(=O)O)Cc2cc(CCC(=O)NCCCCCC(=O)NCCCC[C@H](NC(=O)N[C@@H](CCC(=O)O)C(=O)O)C(=O)O)ccc2O)CC(=O)O)c1` [PSMA11, reference compound], the Kd on PSMA protein (reference PSMA inhibitors, same method) is 1.25 nM.
`NNc1ccc(C(=O)NC(CCC(=O)O)C(=O)NCc2ccc(C(=O)NC(Cc3ccc4ccccc4c3)C(=O)NCCCCC(NC(=O)NC(CCC(=O)O)C(=O)O)C(=O)O)cc2)cn1` (stereo not drawn) [HYNIC-PSMA-XL-3, Glu-Urea-Lys-2Nal-AMB-Glu-HYNIC]: on PSMA protein (setting [5]), the Kd is less than 0.00486 nM.
In the case of `O=C(O)CCC(NC(=O)NC(CCCCNC(=O)C(Cc1ccc2ccccc2c1)NC(=O)c1ccc(CNC(=O)C(CCC(=O)O)NC(=O)C(CCC(=O)O)NC(=O)c2ccc(N[N]=[99Tc]345([Cl])[O]C(=O)C[N]3CC[N]4CC(=O)[O]5)nc2)cc1)C(=O)O)C(=O)O` (stereo not drawn) [^99mTc-HYNIC/EDDA-PSMA-XL-2], the “specific binding to PSMA-positive LNCaP cells” value in data set [1] is “highly specifically bind”.
With `O=C(O)CCC(NC(=O)NC(CCCCNC(=O)C(Cc1ccc2ccccc2c1)NC(=O)c1ccc(CNC(=O)C(CCC(=O)O)NC(=O)c2ccc(N[N]=[99Tc]345([Cl])[O]C(=O)C[N]3CC[N]4CC(=O)[O]5)nc2)cc1)C(=O)O)C(=O)O` (stereo not drawn) [^99mTc-HYNIC/EDDA-PSMA-XL-3], the “consistency of SPECT/CT tumor uptake with immunohistochemical PSMA expression of surgical specimens” value in data set [3] (patients who underwent surgery, listed as 99mTc-HYNIC-PSMA-XL-3) is reported as “highly consistent”. For the same molecule, the “distribution of radioactivity in the bladder” value in data set [3] (patients, about 740 MBq, SPECT/CT 2 hours after injection, compared with tumor uptake) is reported as “low”; in data set [4] (listed as 99mTc-HYNIC-PSMA-XL3) it was “very low distribution of radioactivity”; in data set [4] (listed as 99mTc-HYNIC-PSMA-XL-3) it was “less distribution of radioactivity in the bladder”. Besides, the tumor targeting result in data set [3] (patients, about 740 MBq, SPECT/CT 2 hours after injection, metastases such as lymph nodes/bone) is reported as “high”. Besides, in data set [1], the “specific binding to PSMA-positive LNCaP cells” value is “highly specifically bind”.
As to `O=C([O-])CN(CCN(CC(=O)[O-])Cc1cc(CCC(=O)NCCCCCC(=O)NCCCC[C@H](NC(=O)N[C@@H](CCC(=O)O)C(=O)O)C(=O)O)ccc1[O-])Cc1cc(CCC(=O)O)ccc1[O-].[68Ga+3].[OH3+]` [^68Ga-PSMA11, reference compound], in data set [2], the “patients found to have local recurrence in the prostatic fossa” value was found to be 1; the “positive rate of imaging” value worked out at 80%; the Number of tumors was 1 (2×) and 4 and 0 and 2; the “With or without local recurrence” value is “no (4×) and yes”. The “distribution of radioactivity in the bladder” value in data set [4] is recorded as “higher radiophysiological distribution; also recorded: high physiological distributions in the bladder”.
As to `NNc1ccc(C(=O)NC(CCC(=O)O)C(=O)NC(CCC(=O)O)C(=O)NCc2ccc(C(=O)NC(Cc3ccc4ccccc4c3)C(=O)NCCCCC(NC(=O)NC(CCC(=O)O)C(=O)O)C(=O)O)cc2)cn1` (stereo not drawn) [HYNIC-PSMA-XL-2, Glu-Urea-Lys-2Nal-AMB-Glu-Glu-HYNIC], on PSMA protein (setting [5]), the Kd is less than 0.00643 nM.
